Molecules are shown by their SMILES.

Sequence of GDP-bound KRAS protein (aa 1-169), containing both G12C and C118A amino acid substitutions (P01116 1-169 isoform P01116-2 G12C/C118A): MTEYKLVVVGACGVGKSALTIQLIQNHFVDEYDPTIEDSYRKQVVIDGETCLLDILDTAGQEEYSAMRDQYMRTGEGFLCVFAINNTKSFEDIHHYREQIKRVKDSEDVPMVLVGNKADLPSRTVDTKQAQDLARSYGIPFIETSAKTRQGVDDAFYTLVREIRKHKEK

One assay concerns the target GDP-bound KRAS protein (aa 1-169), containing both G12C and C118A amino acid substitutions (Homo sapiens, UniProt P01116, C118A/G12C). Kind of assay: Coupled nucleotide exchange assay (SOS-mediated, AlphaScreen). The assay is classed as biochemical.
Settings: not given
For orientation: Bead proximity is the source of the signal in Alpha formats.
On to `C=CC(=O)N1[C@@H]2C[C@H]1CN(c1nc(=O)n(-c3c(C)ccnc3C(C)C)c3nc(-c4ccccc4F)c(Cl)cc13)C2` (atropisomer, axis not shown; (M)) [Example 135, (M)-6-Chloro-7-(2-fluorophenyl)-1-(4-methyl-2-(2-propanyl)-3-pyridinyl)-4-((1R,5S)-6-(2-propenoyl)-3,6-diazabicyclo[3.1.1]heptan-3-yl)pyrido[2,3-d]pyrimidin-2(1H)-one], for which the “Coupled exchange IC50 (5 min)” value was 3.32 | nda μM.

The same assay, now with this note: 5 min compound pre-incubation.
Turning to `C=CC(=O)N1CCN(c2nc(=O)n(-c3ccccc3C(C)C)c3nc(Cl)c(Cl)cc23)[C@@H](C)C1` (atropisomer, axis not shown; (M)) [Example 61-1-1, (M)-6,7-Dichloro-4-((2S)-2-methyl-4-(2-propenoyl)-1-piperazinyl)-1-(2-(2-propanyl)phenyl)pyrido[2,3-d]pyrimidin-2(1H)-one], the “Coupled exchange IC50 (5 min)” value is reported as 2.94 | nda μM. For the compound `C=CC(=O)N1CCN(c2nc(=O)n(-c3c(C)ccnc3C(C)C)c3nc(Cl)c(Cl)cc23)[C@@H](C)C1` (atropisomer, axis not shown; (M)) [Example 61-2-2, (M)-6,7-dichloro-1-(4-methyl-2-(2-propanyl)-3-pyridinyl)-4-((2S)-2-methyl-4-(2-propenoyl)-1-piperazinyl)pyrido[2,3-d]pyrimidin-2(1H)-one], the “Coupled exchange IC50 (5 min)” value is recorded as 2.37 | nda μM.

Regarding `C=CC(=O)N1CCN(c2nc(=O)n(-c3c(C)ccnc3C(C)C)c3nc(-c4nc(N)ccc4F)c(F)cc23)[C@@H](C)C1` (atropisomer, axis not shown; (M)) [Example 65-2, (M)-7-(6-amino-3-fluoro-2-pyridinyl)-6-fluoro-1-(4-methyl-2-(2-propanyl)-3-pyridinyl)-4-((2S)-2-methyl-4-(2-propenoyl)-1-piperazinyl)pyrido[2,3-d]pyrimidin-2(1H)-one], the “Coupled exchange IC50 (5 min)” value is 1.31 | nda μM. Consider `C=CC(=O)N1CCN(c2nc(=O)n(-c3c(C)ccnc3C(C)C)c3nc(-c4cc(F)ccc4O)c(F)cc23)C(C)C1` (atropisomer, axis not shown; (M)) [Example 72-1, (M)-6-Fluoro-7-(5-fluoro-2-hydroxyphenyl)-1-(4-methyl-2-(2-propanyl)-3-pyridinyl)-4-((2S)-2-methyl-4-(2-propenoyl)-1-piperazinyl)pyrido[2,3-d]pyrimidin-2(1H)-one], for which the “Coupled exchange IC50 (5 min)” value is 1.17 | nda μM. As to `C=CC(=O)N1CCN(c2nc(=O)n(-c3c(C)ccnc3C(C)C)c3nc(-c4cccc(F)c4O)c(F)cc23)[C@@H](C)C1` (atropisomer, axis not shown; (M)) [Example 72-3, (M)-6-fluoro-7-(3-fluoro-2-hydroxyphenyl)-1-(4-methyl-2-(2-propanyl)-3-pyridinyl)-4-((2S)-2-methyl-4-(2-propenoyl)-4-piperazinyl)pyrido[2,3-d]pyrimidin-2(1H)-one], the “Coupled exchange IC50 (5 min)” value is 3.29 | nda μM. Still for that read-out and setting: then `C=CC(=O)N1CCN(c2nc(=O)n(-c3c(C)ccnc3C(C)C)c3nc(-c4cccc(O)c4F)c(F)cc23)[C@@H](C)C1` (atropisomer, axis not shown; (M)) [Example 72-5, (M)-6-fluoro-7-(2-fluoro-3-hydroxyphenyl)-1-(4-methyl-2-(2-propanyl)-3-pyridinyl)-4-((2S)-2-methyl-4-(2-propenoyl)-1-piperazinyl)pyrido[2,3-d]pyrimidin-2(1H)-one], with 2.91 | nda μM. Consider `C=CC(=O)N1C[C@H](C)N(c2nc(=O)n(-c3c(C)ccnc3C(C)C)c3nc(Cl)c(F)cc23)[C@@H](C)C1` (atropisomer, axis not shown; (M)) [Example 72-12, (M)-7-chloro-4-((2S,6S)-2,6-dimethyl-4-(2-propenoyl)-1-piperazinyl)-6-fluoro-1-(4-methyl-2-(2-propanyl)-3-pyridinyl)pyrido[2,3-d]pyrimidin-2(1H)-one], for which the “Coupled exchange IC50 (5 min)” value was 4.51 | nda μM. As for `C=CC(=O)N1C[C@@H](C)N(c2nc(=O)n(-c3c(C)ccnc3C(C)C)c3nc(Cl)c(Cl)cc23)[C@@H](C)C1` (atropisomer, axis not shown; (M)) [Example 73-11, (M)-6,7-dichloro-4-(cis-2,6-dimethyl-4-(2-propenoyl)-1-piperazinyl)-1-(4-methyl-2-(2-propanyl)-3-pyridinyl)pyrido[2,3-d]pyrimidin-2(1H)-one], the “Coupled exchange IC50 (5 min)” value was 0.625 | nda μM.

As for `C=CC(=O)N1C[C@H](C)N(c2nc(=O)n(-c3c(C)ccnc3C(C)C)c3nc(Cl)c(Cl)cc23)[C@@H](C)C1` (atropisomer, axis not shown; (M)) [Example 73-14, (M)-6,7-dichloro-4-((2S,6S)-2,6-dimethyl-4-(2-propenoyl)-1-piperazinyl)-1-(4-methyl-2-(2-propanyl)-3-pyridinyl)pyrido[2,3-d]pyrimidin-2(1H)-one], the “Coupled exchange IC50 (5 min)” value is listed as 0.711 | nda μM. Regarding `C=CC(=O)N1C[C@@H](C)N(c2nc(=O)n(-c3c(C)ccnc3C(C)C)c3nc(-c4c(N)cccc4F)c(Cl)cc23)[C@H](C)C1` (atropisomer, axis not shown; (M)) [Example 73-18, (M)-7-(2-amino-6-fluorophenyl)-6-chloro-4-((2R,6R)-2,6-dimethyl-4-(2-propenoyl)-1-piperazinyl)-1-(4-methyl-2-(2-propanyl)-3-pyridinyl)pyrido[2,3-d]pyrimidin-2(1H)-one], the “Coupled exchange IC50 (5 min)” value is 5.54 | nda μM. For `C=CC(=O)N1C[C@@H](C)N(c2nc(=O)n(-c3c(C)ccnc3C(C)C)c3nc(-c4c(O)cccc4F)c(Cl)cc23)[C@H](C)C1` (atropisomer, axis not shown; (M)) [Example 73-19, (M)-6-chloro-4-((2R,6R)-2,6-dimethyl-4-(2-propenoyl)-1-piperazinyl)-7-(2-fluoro-6-hydroxyphenyl)-1-(4-methyl-2-(2-propanyl)-3-pyridinyl)pyrido[2,3-d]pyrimidin-2(1H)-one], the “Coupled exchange IC50 (5 min)” value is recorded as 7.55 | nda μM. The same measure, in the same setting: the result for `C=CC(=O)N1CCN(c2nc(=O)n(-c3ccccc3C(C)C)c3nc(Cl)c(Cl)cc23)[C@@H](C)C1` (atropisomer, axis not shown; (P)) [Example 61-1-2, (P)-6,7-dichloro-4-((2S)-2-methyl-4-(2-propenoyl)-1-piperazinyl)-1-(2-(2-propanyl)phenyl)pyrido[2,3-d]pyrimidin-2(1H)-one] reads 20.6 | nda μM; that for `C=CC(=O)N1CCN(c2nc(=O)n(-c3c(C)ccnc3C(C)C)c3nc(Cl)c(Cl)cc23)[C@@H](C)C1` (atropisomer, axis not shown; (P)) [Example 61-2-1, (P)-6,7-dichloro-1-(4-methyl-2-(2-propanyl)-3-pyridinyl)-4-((2S)-2 methyl-4-(2-propenoyl)-1-piperazinyl)pyrido[2,3-d]pyrimidin-2(1H)-one], 8.24 | nda μM. In the case of `C=CC(=O)N1CCN(c2nc(=O)n(-c3c(CO)ccnc3C(C)C)c3nc(-c4ccccc4F)c(Cl)cc23)C(C)C1` (atropisomer, axis not shown; (P)) [Example 84-1, (P)-6-chloro-7-(2-fluorophenyl)-1-(4-(hydroxymethyl)-2-(2-propanyl)-3-pyridinyl)-4-((2S)-2-methyl-4-(2-propenoyl)-1-piperazinyl)pyrido[2,3-d]pyrimidin-2(1H)-one], the “Coupled exchange IC50 (5 min)” value is reported as 2.71 | nda μM. `C=CC(=O)N1CCC(Oc2nc(=O)n(-c3c(C)ccnc3C(C)C)c3nc(-c4ccccc4F)c(Cl)cc23)C1` (racemic) [Example 79-2, (M)-6-chloro-7-(2-fluorophenyl)-1-(4-methyl-2-(2-propanyl)-3-pyridinyl)-4-((1-(2-propenoyl)-3-pyrrolidinyl)oxy)pyrido[2,3-d]pyrimidin-2(1H)-one]: the “Coupled exchange IC50 (5 min)” value is recorded as 28.6 | nda μM. `C=CC(=O)N1CCN(c2nc(=O)n(-c3ccccc3C3CCC3)c3nc(-c4c(O)cccc4F)c(Cl)cc23)[C@@H](C)C1` (single isomer, unassigned) [Example 54-10-1]: the “Coupled exchange IC50 (5 min)” value was 1.21 | nda μM. Regarding `C=CC(=O)N1CCN(c2nc(=O)n(-c3ccccc3C(C)C)c3nc(-c4cc(OC(F)F)ccc4F)c(Cl)cc23)[C@@H](C)C1` (single isomer, unassigned) [Example 54-51-2], the “Coupled exchange IC50 (5 min)” value is on record as 1.84 | nda μM.

As to `C=CC(=O)N1CCN(c2nc(=O)n(-c3ccccc3S(C)(=O)=O)c3nc(-c4c(O)cccc4F)c(Cl)cc23)[C@@H](C)C1` (single isomer, unassigned) [Example 54-56-2], the “Coupled exchange IC50 (5 min)” value is listed as 1.24 | nda μM.

The assay is the same for the next values; noted with them: read-out: Coupled exchange IC50 (5 min); 5 min compound pre-incubation.
Usually IC50 stands for the concentration needed to halve the response being measured. Turning to `C=CC(=O)N1CC(Nc2nc(=O)n(-c3c(C)ccnc3C(C)C)c3nc(-c4ccccc4F)c(Cl)cc23)C1` (atropisomer, axis not shown; (M)) [Example 76-1, (M)-6-Chloro-7-(2-fluorophenyl)-1-(4-methyl-2-(2-propanyl)-3-pyridinyl)-4-((1-(2-propenoyl)-3-azetidinyl)amino)pyrido[2,3-d]pyrimidin-2(1H)-one], the IC50 amounted to 117000 nM. Consider `C=CC(=O)N1CC(Oc2nc(=O)n(-c3c(C)ccnc3C(C)C)c3nc(-c4ccccc4F)c(Cl)cc23)C1` (atropisomer, axis not shown; (M)) [Example 79-1, (M)-6-Chloro-7-(2-fluorophenyl)-1-(4-methyl-2-(2-propanyl)-3-pyridinyl)-4-((1-(2-propenoyl)-3-azetidinyl)oxy)pyrido[2,3-d]pyrimidin-2(1H)-one], for which the IC50 amounted to 3290 nM. Take `C=CC(=O)N1CCN(c2nc(=O)n(-c3c(C)cccc3C(C)C)c3nc(Cl)c(Cl)cc23)[C@@H](C)C1` (atropisomer, axis not shown; (M)) [Example 112, (M)-6,7-Dichloro-1-(2-methyl-6-(2-propanyl)phenyl)-4-((2S)-2-methyl-4-(2-propenoyl)-1-piperazinyl)pyrido[2,3-d]pyrimidin-2(1H)-one]: the IC50 stood at 2450 nM. As for `C=CC(=O)N1CCN(c2nc(=O)n(-c3c(C(C)C)ncc(O)c3C)c3nc(-c4ccccc4F)c(Cl)cc23)[C@@H](C)C1` (atropisomer, axis not shown; (P)) [Example 83-1, (P)-6-Chloro-7-(2-fluorophenyl)-1-(5-hydroxy-4-methyl-2-(2-propanyl)-3-pyridinyl)-4-((2S)-2-methyl-4-(2-propenoyl)-1-piperaninyl)pyrido[2,3-d]pyrimidin-2(1H)-one], the half-maximal inhibitory concentration (IC50) was 548 nM.

Values taken from patent US11090304B2 (Amgen Inc., priority 2018, dated 2021).
